# Measured values published in paper PMC9228270, “Design, Synthesis, In Silico Studies and Inhibitory Activity towards Bcr-Abl, BTK and FLT3-ITD of New 2,6,9-Trisubstituted Purine Derivatives as Potential Agents for the Treatment of Leukaemia” (Pharmaceutics, 2022).
# Several values for one entry are separate records, joined by “and”; a condition that tells them apart may be missing. Equal values may be shown once. Read-outs that look alike come from different tables or passages of the source.
# What was measured:
# FLT3-ITD = target: T1, FLT3-ITD (Homo sapiens, UniProt P36888, ITD); experiment: Recombinant kinase radioassay, FLT3-ITD; type: biochemical
# T1 sequence (P36888 27-993): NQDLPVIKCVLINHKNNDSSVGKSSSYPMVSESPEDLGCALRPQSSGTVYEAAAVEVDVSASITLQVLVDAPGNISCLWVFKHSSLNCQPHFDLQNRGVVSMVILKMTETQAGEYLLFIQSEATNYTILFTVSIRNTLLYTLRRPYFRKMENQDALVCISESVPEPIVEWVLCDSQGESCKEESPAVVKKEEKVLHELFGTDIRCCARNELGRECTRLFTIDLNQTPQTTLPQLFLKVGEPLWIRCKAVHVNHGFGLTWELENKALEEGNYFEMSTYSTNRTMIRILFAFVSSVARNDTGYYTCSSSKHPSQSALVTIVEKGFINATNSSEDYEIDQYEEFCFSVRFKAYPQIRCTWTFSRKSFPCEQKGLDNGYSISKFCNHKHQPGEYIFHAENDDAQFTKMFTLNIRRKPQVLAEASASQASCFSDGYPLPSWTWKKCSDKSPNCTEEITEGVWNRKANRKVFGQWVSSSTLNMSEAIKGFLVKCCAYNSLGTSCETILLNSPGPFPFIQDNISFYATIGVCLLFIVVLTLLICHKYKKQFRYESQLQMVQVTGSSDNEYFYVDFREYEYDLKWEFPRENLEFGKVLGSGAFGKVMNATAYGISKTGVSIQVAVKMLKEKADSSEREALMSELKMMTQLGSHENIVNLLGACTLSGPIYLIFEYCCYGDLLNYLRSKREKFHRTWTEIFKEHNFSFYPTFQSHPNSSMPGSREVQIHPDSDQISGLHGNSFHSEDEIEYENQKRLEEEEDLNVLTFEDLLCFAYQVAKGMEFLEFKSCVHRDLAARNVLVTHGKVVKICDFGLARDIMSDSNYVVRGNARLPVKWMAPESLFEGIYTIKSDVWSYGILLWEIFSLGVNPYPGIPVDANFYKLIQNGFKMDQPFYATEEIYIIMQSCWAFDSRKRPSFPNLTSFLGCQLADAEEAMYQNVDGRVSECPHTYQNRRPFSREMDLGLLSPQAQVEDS
# Method: (§1) Recombinant kinase inhibition was measured using standard radioassay. Bcr-Abl1 and Cdk-2/cyclin E kinases were produced in-house, FLT3-ITD and BTK were purchased from ProQinase. The kinases were assayed with suitable substrates (500 µM peptide […] for Abl, 1 mg/mL histone H1 for Cdk-2, 100 µM poly (Glu:Tyr; 4:1)) in the presence of ATP (1 µM for Bcr-Abl, 15 µM for Cdk-2 and BTK), 0.05 µCi [γ-^33P]ATP and the test compound in reaction buffer (60 mM HEPES-NaOH, pH 7.5, 3 mM MgCl2, 3 mM MnCl2, 3 µM Na orthovanadate, 1.2 mM DTT, 2.5 µg/50 µL PEG20.000). The reactions were stopped by adding 3% aq. H3PO4. P-81 phosphocellulose (Whatman) was used to separate phosphorylated substrates. Kinase activity was quantified using a FLA-7000 digital image analyser.
# CEM = experiment: Cytotoxicity assay (resazurin), CEM; type: cell-based; conditions: Homo sapiens, CCRF-CEM, 72 h, three independent experiments, range 0.1 to 25 µM
# Method: (§2) Cytotoxicity assays for the purines were quantified using the resazurin method, a dye to measure redox reactions occurring in the mitochondria of live cells. The cells were treated by tested compounds (in triplicate, six different doses) for 72 h.
# Cdk-2/cyclin E = target: T2, Cdk-2/cyclin E (Homo sapiens, UniProt P24941); experiment: Recombinant kinase radioassay, Cdk-2/cyclin E; type: biochemical; conditions: ATP 15 µM, at least three independent experiments, range 0.01–100 µM
# T2 construct: made in house
# Method: as §1
# HL-60 = experiment: Cytotoxicity assay (resazurin), HL-60; type: cell-based; conditions: Homo sapiens, 72 h, three independent experiments, range 0.1 to 25 µM
# Method: as §2
# Bcr-Abl1 = Bcr-Abl1 (Homo sapiens, UniProt P00519); experiment: Recombinant kinase radioassay, Abl; type: biochemical; conditions: ATP 1 µM, at least three independent experiments, range 0.01–100 µM
# Method: as §1
# K562 = experiment: Cytotoxicity assay (resazurin), K562; type: cell-based; conditions: Homo sapiens, 72 h, three independent experiments, range 0.1 to 25 µM
# Method: as §2
# BTK = target: T3, BTK (Homo sapiens, UniProt Q06187); experiment: Recombinant kinase radioassay, BTK; type: biochemical
# T3 construct: purchased ProQinase
# Method: as §1
# MV4-11 = experiment: Cytotoxicity assay (resazurin), MV4-11; type: cell-based; conditions: Homo sapiens, 72 h, three independent experiments, range 0.1 to 25 µM
# Method: as §2
# Ramos = experiment: Cytotoxicity assay (resazurin), Ramos; type: cell-based; conditions: Homo sapiens, 72 h, three independent experiments, range 0.1 to 25 µM
# Method: as §2
# [1] = recombinant kinase, radioassay, at least three independent experiments, range 0.01–100 µM, read-out: IC50 FLT3-ITD
# [2] = recombinant kinase, radioassay, ATP 15 µM, at least three independent experiments, range 0.01–100 µM, read-out: IC50 BTK
# [3] = -log IC50 in molar concentration, Table S3, read-out: Experimental pIC50, CoMFA FLT3 (converted)
# [4] = -log IC50 in molar concentration, Table S3, read-out: Experimental pIC50, CoMFA BTK (converted)
# T3 sequence (Q06187 whole entry): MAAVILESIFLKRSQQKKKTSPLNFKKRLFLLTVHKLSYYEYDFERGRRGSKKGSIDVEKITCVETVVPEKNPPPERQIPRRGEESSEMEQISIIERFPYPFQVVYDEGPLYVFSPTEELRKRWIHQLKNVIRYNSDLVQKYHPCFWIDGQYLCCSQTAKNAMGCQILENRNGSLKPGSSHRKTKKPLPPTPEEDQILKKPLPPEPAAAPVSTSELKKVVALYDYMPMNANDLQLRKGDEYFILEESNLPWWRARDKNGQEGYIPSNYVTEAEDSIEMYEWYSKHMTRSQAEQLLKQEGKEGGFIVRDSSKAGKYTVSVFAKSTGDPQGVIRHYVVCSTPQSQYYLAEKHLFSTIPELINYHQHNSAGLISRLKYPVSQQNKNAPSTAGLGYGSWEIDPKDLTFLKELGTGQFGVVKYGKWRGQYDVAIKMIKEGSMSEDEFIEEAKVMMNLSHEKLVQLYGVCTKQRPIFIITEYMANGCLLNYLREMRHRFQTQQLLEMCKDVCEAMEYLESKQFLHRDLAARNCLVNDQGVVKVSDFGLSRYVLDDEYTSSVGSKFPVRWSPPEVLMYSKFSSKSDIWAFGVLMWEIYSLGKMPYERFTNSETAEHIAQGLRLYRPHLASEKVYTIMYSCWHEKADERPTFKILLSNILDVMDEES
# Chain of Bcr-Abl1 (P00519 27-1130): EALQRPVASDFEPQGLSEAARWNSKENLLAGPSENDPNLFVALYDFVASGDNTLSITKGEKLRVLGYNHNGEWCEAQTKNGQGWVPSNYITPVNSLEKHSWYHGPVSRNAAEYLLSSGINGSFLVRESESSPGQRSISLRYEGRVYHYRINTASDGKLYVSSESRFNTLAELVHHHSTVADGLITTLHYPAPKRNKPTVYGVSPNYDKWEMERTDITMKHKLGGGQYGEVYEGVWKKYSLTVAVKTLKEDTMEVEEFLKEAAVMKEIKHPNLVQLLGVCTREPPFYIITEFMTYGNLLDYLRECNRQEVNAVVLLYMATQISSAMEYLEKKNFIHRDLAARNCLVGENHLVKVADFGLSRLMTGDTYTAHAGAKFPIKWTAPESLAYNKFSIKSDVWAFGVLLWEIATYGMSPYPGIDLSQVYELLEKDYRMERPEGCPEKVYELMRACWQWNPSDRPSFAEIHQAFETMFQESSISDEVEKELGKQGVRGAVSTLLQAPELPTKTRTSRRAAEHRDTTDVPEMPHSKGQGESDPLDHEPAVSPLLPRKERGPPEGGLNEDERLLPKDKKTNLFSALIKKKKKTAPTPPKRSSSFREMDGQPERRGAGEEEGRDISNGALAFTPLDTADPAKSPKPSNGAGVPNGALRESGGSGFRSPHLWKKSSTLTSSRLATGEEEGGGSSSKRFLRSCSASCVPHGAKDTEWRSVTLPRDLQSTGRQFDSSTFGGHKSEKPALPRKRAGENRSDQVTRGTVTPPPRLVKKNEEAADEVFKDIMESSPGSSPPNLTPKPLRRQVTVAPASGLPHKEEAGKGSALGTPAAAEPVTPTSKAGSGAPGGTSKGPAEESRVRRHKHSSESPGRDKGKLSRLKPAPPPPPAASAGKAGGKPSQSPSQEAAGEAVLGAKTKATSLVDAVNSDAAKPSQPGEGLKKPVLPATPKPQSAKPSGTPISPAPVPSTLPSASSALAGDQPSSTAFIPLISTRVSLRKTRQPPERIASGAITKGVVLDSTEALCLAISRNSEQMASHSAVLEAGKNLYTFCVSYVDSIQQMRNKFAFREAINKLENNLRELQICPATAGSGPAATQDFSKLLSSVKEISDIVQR
SMILES,IC50 (FLT3-ITD; [1]),GI50 (CEM),IC50 (Cdk-2/cyclin E),GI50 (HL-60),IC50 (Bcr-Abl1),GI50 (K562),melting point,IC50 (BTK; [2]),GI50 (MV4-11),GI50 (Ramos),IC50 (FLT3-ITD; [3]),IC50 (BTK; [4])
"CCCCCn1cnc2c(Nc3cccc(F)c3)nc(Nc3ccc(N4CCN(C)CC4)cc3)nc21 [Compound 5e, N^6-(3-Fluorophenyl)-N^2-(4-(4-methylpiperazin-1-yl)phenyl)-9-pentyl-9H-purine-2,6-diamine]",0.5 µM,19 ± 3.89 µM,19 ± 8.98 µM,1.31 µM,0.65 ± 0.07 µM,2.14 ± 0.8 µM,147.1 to 149.3 °C,< 0.58 µM and 0.36 µM,1.31 ± 0.71 µM,11.6 ± 1.46 µM,,
"CC(C)CCn1cnc2c(Nc3ccc(F)c(F)c3)nc(Nc3ccc(N4CCN(C)CC4)cc3)nc21 [Compound 5c, N^6-(3,4-Difluorophenyl)-9-isopentyl-N^2-(4-(4-methylpiperazin-1-yl)phenyl)-9H-purine-2,6-diamine]",0.79 µM,16.8 ± 3.34 µM,62.5 ± 15 µM,1.59 ± 0.47 µM,2.28 ± 0.8 µM,9.4 ± 0.78 µM,,1.89 ± 0.17 µM,1.43 ± 0.56 µM,8.87 ± 0.94 µM,,
"CN1CCN(c2ccc(Nc3nc(Nc4ccc(Cl)c(Cl)c4)c4ncn(CC5CC5)c4n3)cc2)CC1 [Compound 4n, 9-(Cyclopropylmethyl)-N^6-(3,4-dichlorophenyl)-N^2-(4-(4-methylpiperazin-1-yl)phenyl)-9H-purine-2,6-diamine]",2.53 µM,17.54 ± 0.08 µM,12.9 ± 1.7 µM,1.52 ± 0.34 µM,0.07 ± 0.01 µM,5.54 ± 1.56 µM,132 to 133 °C,3.9 ± 0.05 µM,4.81 ± 1.54 µM,8.02 ± 1.3 µM,,
Clc1nc(Cl)c2cc[nH]c2n1 [Compound 9],,,,,,,,,,,0.534 µM,0.938 µM
Clc1nc(Nc2ccccc2)c2ccn(CC3CC3)c2n1 [Compound 11],,,,,,,,,,,1.16 µM,1.16 µM
"CN1CCN(c2ccc(Nc3nc(Nc4ccccc4F)c4ncn(CC5CC5)c4n3)cc2)CC1 [Compound 4a, 9-(Cyclopropylmethyl)-N^6-(2-fluorophenyl)-N^2-(4-(4-methylpiperazin-1-yl)phenyl)-9H-purine-2,6-diamine]",,17.1 ± 0.4 µM,14 ± 2.33 µM,1.82 ± 0.35 µM,4.19 ± 0.83 µM,21.3 ± 0.63 µM,149 to 152 °C,14.7 ± 1.48 µM,6.47 ± 1.82 µM,15.6 ± 0.88 µM,,
Clc1nc(Cl)c2ccn(CC3CC3)c2n1 [Compound 10],,,,,,,,,,,0.367 µM,0.912 µM
"CCCCCn1cnc2c(Nc3ccc(F)c(F)c3)nc(Nc3ccc(N4CCN(C)CC4)cc3)nc21 [Compound 5f, N^6-(3,4-Difluorophenyl)-N^2-(4-(4-methylpiperazin-1-yl)phenyl)-9-pentyl-9H-purine-2,6-diamine]",1.02 µM,> 25 µM,20.8 ± 3.18 µM,3.61 ± 1.02 µM,1.36 ± 0.5 µM,> 25 µM,,0.93 ± 0.14 µM,1.61 ± 0.63 µM,> 25 µM,,
Clc1nc(Cl)c2[nH]cnc2n1 [Compound 1],,,,,,,,,,,19.4 µM,14.7 µM
"CCCCCCn1cnc2c(Nc3ccc(F)c(F)c3)nc(Nc3ccc(N4CCN(C)CC4)cc3)nc21 [Compound 5i, N^6-(3,4-Difluorophenyl)-9-hexyl-N^2-(4-(4-methylpiperazin-1-yl)phenyl)-9H-purine-2,6-diamine]",2.74 µM,> 25 µM,47.3 ± 31.6 µM,3.91 ± 0.07 µM,34 ± 1.63 µM,> 25 µM,,< 0.58 µM and 0.46 µM,3.86 ± 1.08 µM,> 25 µM,,
"CCOC(=O)c1ccc(Nc2nc(Nc3ccc(N4CCN(C)CC4)cc3)nc3c2ncn3CC2CC2)cc1 [Compound 4k, Ethyl-4-((9-(cyclopropylmethyl)-2-((4-(4-methylpiperazin-1-yl)phenyl)amino)-9H-purin-6-yl)amino)benzoate]",1.16 µM,13.9 ± 1.12 µM,> 50 µM,1.93 ± 0.17 µM,0.04 ± 0.01 µM,2.7 ± 1.31 µM,,1.16 ± 0.18 µM,2.43 ± 0.59 µM,12.3 ± 1.58 µM,,
"CCCCCCCCn1cnc2c(Nc3ccc(F)c(F)c3)nc(Nc3ccc(N4CCN(C)CC4)cc3)nc21 [Compound 5l, N^6-(3,4-Difluorophenyl)-N^2-(4-(4-methylpiperazin-1-yl)phenyl)-9-octyl-9H-purine-2,6-diamine]",> 20 µM,> 25 µM,32.2 ± 1.33 µM,1.51 ± 1.49 µM,84.5 ± 5.9 µM,11.8 ± 2.19 µM,,0.58 ± 0.33 µM,16.3 ± 4.99 µM,18.9 ± 2.11 µM,,
O=C(Cl)c1ccc([N+](=O)[O-])cc1 [Compound 6],,,,,,,,,,,2.32 µM,4.12 µM
"CN1CCN(C(=O)c2ccc(Nc3nc(Nc4cccc(F)c4)c4ncn(CC5CC5)c4n3)cc2)CC1 [Compound 8b, (4-((9-(Cyclopropylmethyl)-6-((3-fluorophenyl)amino)-9H-purin-2-yl)amino)phenyl)(4-methylpiperazin-1-yl)methanone]",1.6 µM,20.2 ± 3.73 µM,,1.08 ± 0.1 µM,,4.91 ± 0.01 µM,150 to 151 °C,1.72 ± 0.19 µM,1.48 ± 0.54 µM,7.07 ± 0.32 µM,,
CN1CCN(C(=O)c2ccc(N)cc2)CC1 [Compound 7],,,,,,,,,,,1.25 µM,1.36 µM
"CN1CCN(c2ccc(Nc3nc(Nc4cccc(C#N)c4)c4ncn(CC5CC5)c4n3)cc2)CC1 [Compound 4f, 3-((9-(Cyclopropylmethyl)-2-((4-(4-methylpiperazin-1-yl)phenyl)amino)-9H-purin-6-yl)amino)benzonitrile]",0.93 µM,,23.6 ± 1.15 µM,1.56 ± 0.88 µM,0.07 ± 0.01 µM,3.68 ± 0.78 µM,,1.43 ± 0.29 µM,1.05 ± 0.1 µM,5.86 ± 3.64 µM,,
